The values that follow come from the NIST ThermoML archive (doi:10.1016/j.jct.2019.05.005).

± gives the expanded uncertainty stated by the source.

For this data set the following is noted: Liquid; Ebulliometric method (Recirculating still).
`CCC(C)OC(C)=O` (centres undefined) [1-methylpropyl ethanoate]: the Normal boiling temperature came out at 112.18 ± 1 °C.
The result for `CC(=O)N(C)C` [N,N-dimethylethanamide] reads 165.80 ± 1 °C; that for `CCC(C)O` (centres undefined) [butan-2-ol], 99.48 ± 1 °C.
For `C[S+](C)[O-]` [dimethyl sulfoxide], the Normal boiling temperature is 190.02 ± 1 °C.
